# In PubChem BioAssay (NCI):
# “And” between values parts separate entries of the source, which are not always exact repeats. Identical values can stand only once.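 Each compound was tested at five concentrations against cells in 96-well plates for 48 hours. Here, GI50 denotes the concentration required for 50% inhibition of growth. At the TGI there is no net growth.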
# How the values were obtained:
# Assay in all cases: NCI tumour cell line growth inhibition, 48 h
# HOP-18 NSCLC = test system: HOP-18 NSCLC
# SN12K1 renal = test system: SN12K1 renal
# OVCAR-5 ovarian = test system: OVCAR-5 ovarian
# P388 leukemia = test system: P388 leukemia
# XF 498 CNS = test system: XF 498 CNS
# HL-60(TB) leukemia = test system: HL-60(TB) leukemia
# SF-539 CNS = test system: SF-539 CNS
# SF-295 CNS = test system: SF-295 CNS
# IGROV1 ovarian = test system: IGROV1 ovarian
# NCI-H23 lung = test system: NCI-H23 lung
# A549 NSCLC = test system: A549 NSCLC
# MCF7 breast = test system: MCF7 breast
# K-562 leukemia = test system: K-562 leukemia
# DLD-1 colon = test system: DLD-1 colon
# UACC-62 melanoma = test system: UACC-62 melanoma
# OVCAR-3 ovarian = test system: OVCAR-3 ovarian
# HOP-62 NSCLC = test system: HOP-62 NSCLC
# SN12C renal = test system: SN12C renal
# U251 CNS = test system: U251 CNS
# SNB-78 CNS = test system: SNB-78 CNS
# EKVX NSCLC = test system: EKVX NSCLC
# NCI-H226 lung = test system: NCI-H226 lung
# HOP-92 NSCLC = test system: HOP-92 NSCLC
# HCT-116 colon = test system: HCT-116 colon
# MALME-3M melanoma = test system: MALME-3M melanoma
# CAKI-1 renal = test system: CAKI-1 renal
# NCI/ADR-RES ovarian = test system: NCI/ADR-RES ovarian
# OVCAR-8 ovarian = test system: OVCAR-8 ovarian
# SK-OV-3 ovarian = test system: SK-OV-3 ovarian
# COLO 205 colon = test system: COLO 205 colon
# SW-620 colon = test system: SW-620 colon
# HT29 colon = test system: HT29 colon
# A498 renal = test system: A498 renal
# M19-MEL melanoma = test system: M19-MEL melanoma
# SK-MEL-2 melanoma = test system: SK-MEL-2 melanoma
# SF-268 CNS = test system: SF-268 CNS
# UACC-257 melanoma = test system: UACC-257 melanoma
# SK-MEL-28 melanoma = test system: SK-MEL-28 melanoma
# LOX IMVI melanoma = test system: LOX IMVI melanoma
# KM12 colon = test system: KM12 colon
# HCT-15 colon = test system: HCT-15 colon
# RPMI-8226 leukemia = test system: RPMI-8226 leukemia
# SK-MEL-5 melanoma = test system: SK-MEL-5 melanoma
# DMS 114 small cell lung = test system: DMS 114 small cell lung
# NCI-H460 lung = test system: NCI-H460 lung
# DMS 273 small cell lung = test system: DMS 273 small cell lung
# CCRF-CEM leukemia = test system: CCRF-CEM leukemia
# SNB-19 CNS = test system: SNB-19 CNS
# HCC-2998 colon = test system: HCC-2998 colon
# SNB-75 CNS = test system: SNB-75 CNS
# NCI-H522 lung = test system: NCI-H522 lung
# OVCAR-4 ovarian = test system: OVCAR-4 ovarian
# UO-31 renal = test system: UO-31 renal
# MOLT-4 leukemia = test system: MOLT-4 leukemia
# ACHN renal = test system: ACHN renal
# KM20L2 colon = test system: KM20L2 colon
# LXFL 529 NSCLC = test system: LXFL 529 NSCLC
# RXF-631 renal = test system: RXF-631 renal
# SR leukemia = test system: SR leukemia
# RXF 393 renal = test system: RXF 393 renal
# TK-10 renal = test system: TK-10 renal
# M14 melanoma = test system: M14 melanoma
# 786-0 renal = test system: 786-0 renal
smiles,measurement,setting,value
C=C1CCCC(C)(C)[C@@H]1CC/C(C)=C/Cn1c2cccc(=O)c-2nc2ccccc21,GI50,HOP-18 NSCLC,37.2 µM
same,TGI,HOP-18 NSCLC,> 100 µM and 18.2 µM
same,GI50,SN12K1 renal,2.89 µM
same,TGI,SN12K1 renal,15.5 µM and 13.2 µM
same,GI50,OVCAR-5 ovarian,27.1 µM
same,TGI,P388 leukemia,> 100 µM
same,GI50,XF 498 CNS,2.8 µM
same,TGI,HL-60(TB) leukemia,0.354 µM
same,GI50,SF-539 CNS,3.01 µM
same,TGI,SF-539 CNS,9.57 µM and 3.55 µM
same,GI50,SF-295 CNS,3.93 µM
same,TGI,SF-295 CNS,26.9 µM and 4.16 µM
same,GI50,IGROV1 ovarian,2.71 µM
same,TGI,IGROV1 ovarian,8.87 µM and 6.11 µM
same,GI50,NCI-H23 lung,5.39 µM
same,GI50,A549 NSCLC,20.9 µM
same,GI50,MCF7 breast,4.92 µM
same,TGI,MCF7 breast,> 100 µM and 10.4 µM
same,TGI,K-562 leukemia,> 100 µM
same,GI50,DLD-1 colon,4.86 µM
same,TGI,UACC-62 melanoma,2.47 µM
same,TGI,OVCAR-3 ovarian,18.9 µM and 12.5 µM
same,TGI,HOP-62 NSCLC,9.37 µM
same,GI50,SN12C renal,5.57 µM
same,GI50,U251 CNS,10.7 µM
same,GI50,SNB-78 CNS,4.35 µM
same,TGI,SNB-78 CNS,> 100 µM
same,TGI,EKVX NSCLC,11.4 µM
same,GI50,NCI-H226 lung,21.2 µM
same,TGI,NCI-H226 lung,> 100 µM and 21.6 µM
same,GI50,HOP-92 NSCLC,22.7 µM
same,GI50,HCT-116 colon,2.55 µM
same,TGI,HCT-116 colon,6.62 µM and 2.73 µM
same,GI50,MALME-3M melanoma,5.76 µM
same,TGI,MALME-3M melanoma,> 100 µM
same,TGI,CAKI-1 renal,10.7 µM
same,GI50,NCI/ADR-RES ovarian,4.23 µM
same,GI50,OVCAR-8 ovarian,4.28 µM
same,TGI,SK-OV-3 ovarian,10.7 µM
same,GI50,COLO 205 colon,23.8 µM
same,GI50,SW-620 colon,5.87 µM
same,GI50,HT29 colon,3.82 µM
same,TGI,HT29 colon,27.4 µM and 3.29 µM
same,GI50,A498 renal,7.76 µM
same,TGI,A498 renal,70.2 µM and 14.1 µM
same,GI50,M19-MEL melanoma,3.07 µM
same,GI50,SK-MEL-2 melanoma,6.62 µM
same,TGI,SF-268 CNS,3.71 µM
same,GI50,UACC-257 melanoma,2.83 µM
same,TGI,UACC-257 melanoma,9.02 µM and 4.68 µM
same,GI50,SK-MEL-28 melanoma,1.82 µM
same,TGI,SK-MEL-28 melanoma,3.46 µM and 17.6 µM
same,TGI,LOX IMVI melanoma,2.45 µM
same,GI50,KM12 colon,7.96 µM
same,TGI,KM12 colon,45.4 µM and 10.4 µM
same,GI50,HCT-15 colon,4.34 µM
same,GI50,RPMI-8226 leukemia,3.06 µM
same,TGI,RPMI-8226 leukemia,9.68 µM and 17.8 µM
same,TGI,SK-MEL-5 melanoma,13.8 µM
same,TGI,DMS 114 small cell lung,2.3 µM
same,GI50,NCI-H460 lung,14 µM
same,GI50,DMS 273 small cell lung,3.02 µM
same,TGI,DMS 273 small cell lung,24.1 µM and 3.29 µM
same,TGI,CCRF-CEM leukemia,13 µM
same,GI50,SNB-19 CNS,9.54 µM
same,TGI,SNB-19 CNS,60.2 µM and 15.8 µM
same,TGI,HCC-2998 colon,4.53 µM
same,GI50,SNB-75 CNS,2.09 µM
same,TGI,SNB-75 CNS,4.54 µM and 5.04 µM
same,GI50,NCI-H522 lung,6.35 µM
same,TGI,NCI-H522 lung,> 100 µM
same,GI50,OVCAR-4 ovarian,6.28 µM
same,GI50,UO-31 renal,3.91 µM
same,GI50,MOLT-4 leukemia,5.55 µM
same,TGI,MOLT-4 leukemia,70.7 µM and 9.78 µM
CCOC(=O)C(C)OC(=O)c1ccc(C)cc1 (configuration not stated),TGI,HOP-18 NSCLC,> 100 µM
same,TGI,OVCAR-5 ovarian,> 100 µM
same,TGI,XF 498 CNS,> 100 µM
same,TGI,HL-60(TB) leukemia,> 100 µM
same,TGI,SF-539 CNS,> 100 µM
same,TGI,IGROV1 ovarian,> 100 µM
same,TGI,NCI-H23 lung,> 100 µM
same,TGI,A549 NSCLC,> 100 µM
same,TGI,K-562 leukemia,> 100 µM
same,TGI,DLD-1 colon,> 100 µM
same,TGI,UACC-62 melanoma,> 100 µM
same,TGI,OVCAR-3 ovarian,> 100 µM
same,TGI,SN12C renal,> 100 µM
same,TGI,U251 CNS,> 100 µM
same,TGI,SNB-78 CNS,> 100 µM
same,TGI,EKVX NSCLC,> 100 µM
same,TGI,ACHN renal,> 100 µM
same,TGI,HOP-92 NSCLC,> 100 µM
same,TGI,HCT-116 colon,> 100 µM
same,TGI,MALME-3M melanoma,> 100 µM
same,TGI,OVCAR-8 ovarian,> 100 µM
same,TGI,KM20L2 colon,> 100 µM
same,TGI,SK-OV-3 ovarian,> 100 µM
same,TGI,COLO 205 colon,> 100 µM
same,TGI,SW-620 colon,> 100 µM
same,TGI,HT29 colon,> 100 µM
same,TGI,A498 renal,> 100 µM
same,TGI,M19-MEL melanoma,> 100 µM
same,TGI,SK-MEL-2 melanoma,> 100 µM
same,TGI,SF-268 CNS,> 100 µM
same,TGI,LXFL 529 NSCLC,> 100 µM
same,TGI,RXF-631 renal,> 100 µM
same,TGI,UACC-257 melanoma,> 100 µM
same,TGI,SR leukemia,> 100 µM
same,TGI,RXF 393 renal,> 100 µM
same,TGI,SK-MEL-28 melanoma,> 100 µM
same,TGI,LOX IMVI melanoma,> 100 µM
same,TGI,TK-10 renal,> 100 µM
same,TGI,KM12 colon,> 100 µM
same,TGI,HCT-15 colon,> 100 µM
same,TGI,SK-MEL-5 melanoma,> 100 µM
same,TGI,M14 melanoma,> 100 µM
same,TGI,DMS 114 small cell lung,> 100 µM
same,TGI,NCI-H460 lung,> 100 µM
same,TGI,DMS 273 small cell lung,> 100 µM
same,TGI,CCRF-CEM leukemia,> 100 µM
same,TGI,SNB-19 CNS,> 100 µM
same,TGI,HCC-2998 colon,> 100 µM
same,TGI,SNB-75 CNS,> 100 µM
same,TGI,NCI-H522 lung,> 100 µM
same,TGI,UO-31 renal,> 100 µM
same,TGI,MOLT-4 leukemia,> 100 µM
CCOC(=O)NC(=O)c1cn(CCCCCCCCCCC(=O)N2CCN(CCn3cc(C(=O)NC(=O)OCC)c(=O)[nH]c3=O)CC2)c(=O)[nH]c1=O,TGI,HOP-18 NSCLC,> 100 µM
same,TGI,XF 498 CNS,> 100 µM
same,TGI,HL-60(TB) leukemia,> 100 µM
same,TGI,SF-539 CNS,> 100 µM
same,TGI,SF-295 CNS,> 100 µM
same,TGI,IGROV1 ovarian,> 100 µM
same,TGI,NCI-H23 lung,> 100 µM
same,TGI,A549 NSCLC,> 100 µM
same,TGI,K-562 leukemia,> 100 µM
same,TGI,DLD-1 colon,> 100 µM
same,TGI,UACC-62 melanoma,> 100 µM
same,TGI,OVCAR-3 ovarian,> 100 µM
same,TGI,HOP-62 NSCLC,> 100 µM
same,TGI,SN12C renal,> 100 µM
same,TGI,U251 CNS,> 100 µM
same,TGI,SNB-78 CNS,> 100 µM
same,TGI,EKVX NSCLC,> 100 µM
same,TGI,ACHN renal,> 100 µM
same,TGI,HOP-92 NSCLC,> 100 µM
same,TGI,HCT-116 colon,> 100 µM
same,TGI,CAKI-1 renal,> 100 µM
same,TGI,OVCAR-8 ovarian,> 100 µM
same,TGI,KM20L2 colon,> 100 µM
same,TGI,SK-OV-3 ovarian,> 100 µM
same,TGI,COLO 205 colon,> 100 µM
same,TGI,SW-620 colon,> 100 µM
same,TGI,HT29 colon,> 100 µM
same,TGI,A498 renal,> 100 µM
same,TGI,M19-MEL melanoma,> 100 µM
same,TGI,786-0 renal,> 100 µM
same,TGI,LXFL 529 NSCLC,> 100 µM
same,TGI,RXF-631 renal,> 100 µM
same,TGI,UACC-257 melanoma,> 100 µM
same,TGI,RXF 393 renal,> 100 µM
same,TGI,SK-MEL-28 melanoma,> 100 µM
same,TGI,LOX IMVI melanoma,> 100 µM
same,TGI,TK-10 renal,> 100 µM
same,TGI,HCT-15 colon,> 100 µM
same,TGI,RPMI-8226 leukemia,> 100 µM
same,TGI,SK-MEL-5 melanoma,> 100 µM
same,TGI,M14 melanoma,> 100 µM
same,TGI,DMS 114 small cell lung,> 100 µM
same,TGI,NCI-H460 lung,> 100 µM
same,TGI,DMS 273 small cell lung,> 100 µM
same,TGI,CCRF-CEM leukemia,> 100 µM
same,TGI,SNB-19 CNS,> 100 µM
same,TGI,HCC-2998 colon,> 100 µM
same,TGI,SNB-75 CNS,> 100 µM
same,TGI,OVCAR-4 ovarian,> 100 µM
same,TGI,MOLT-4 leukemia,> 100 µM
